Experiments:
Test in all cases: KinomeScan panel screen
Format in all cases: binding
[1] = target: T1, ACVR1 (Homo sapiens, UniProt Q04771); settings: ACVR1, 100 nM; read-out: Percent Control
T1 construct: purchased DiscoveRx KINOMEscan (TRKA and CSF1R IC50 enzymes from Invitrogen)
Experimental: (§1) In addition, NPA101.3, at a concentration of 100 nM, was subjected to a kinome scan against a 96-kinase panel representing major kinome clusters (Table S2). The compound featured good selectivity, displaying strong binding activity (>90% bound) for only seven additional kinases [CSF1R (colony stimulating factor 1 receptor), FRK (fyn-related Src family tyrosine kinase), HCK (HCK proto-oncogene, Src family tyrosine kinase), LYN (lyn proto-oncogene, Src family tyrosine kinase), MKNK2 (MAPK-interacting serine/threonine kinase 2), TRKA (neurotrophic receptor tyrosine kinase 1), and TRKC (neurotrophic receptor tyrosine kinase 3)] and weak binding (>10–35% bound) for six other kinases (Table S2 and Figure S2). It is important to note that the measurement of binding affinity, which is based on control ligand displacement (Kd), is more sensitive than the in vitro kinase assay. Among the seven kinases with >90% binding, TRKA and CSF1R were selected for an in vitro kinase assay.
(§2) Supplementary Table S2: NPA101.3 KinomeScan Panel screen.
(§3) NPA101.3 was screened at a single concentration of 100 nM. Hits values lower than
(§4) 10% of control were considered strongly positive.
(§5) DiscoveRx Gene Entrez Gene Percent Compound
(§6) Symbol Symbol Control Concentration

[2] = target: T2, ASK1 (Homo sapiens, UniProt Q99683); settings: ASK1, 100 nM; read-out: Percent Control
T2 construct: purchased DiscoveRx KINOMEscan (TRKA and CSF1R IC50 enzymes from Invitrogen)
Experimental: as §1, §2, §3, §4, §5, §6

[3] = target: T3, AURKB (Homo sapiens, UniProt Q96GD4); settings: 100 nM, read-out: Percent Control
T3 construct: purchased DiscoveRx KINOMEscan (TRKA and CSF1R IC50 enzymes from Invitrogen)
Experimental: as §1, §2, §3, §4, §5, §6

[4] = target: T4, BMX (Homo sapiens, UniProt P51813); settings: 100 nM, read-out: Percent Control
T4 construct: purchased DiscoveRx KINOMEscan (TRKA and CSF1R IC50 enzymes from Invitrogen)
Experimental: as §1, §2, §3, §4, §5, §6

[5] = target: T5, CAMK1 (Homo sapiens, UniProt Q14012); settings: CAMK1, 100 nM; read-out: Percent Control
T5 construct: purchased DiscoveRx KINOMEscan (TRKA and CSF1R IC50 enzymes from Invitrogen)
Experimental: as §1, §2, §3, §4, §5, §6

[6] = target: T6, CAMK2A (Homo sapiens, UniProt Q9UQM7); settings: 100 nM, read-out: Percent Control
T6 construct: purchased DiscoveRx KINOMEscan (TRKA and CSF1R IC50 enzymes from Invitrogen)
Experimental: as §1, §2, §3, §4, §5, §6

[7] = target: T7, CDK7 (Homo sapiens, UniProt P50613); settings: CDK7, 100 nM; read-out: Percent Control
T7 construct: purchased DiscoveRx KINOMEscan (TRKA and CSF1R IC50 enzymes from Invitrogen)
Experimental: as §1, §2, §3, §4, §5, §6

[8] = target: T8, CHEK2 (Homo sapiens, UniProt O96017); settings: CHEK2, 100 nM; read-out: Percent Control
T8 construct: purchased DiscoveRx KINOMEscan (TRKA and CSF1R IC50 enzymes from Invitrogen)
Experimental: as §1, §2, §3, §4, §5, §6

[9] = target: T9, CSF1R (Homo sapiens, UniProt P07333); settings: 100 nM
T9 construct: purchased Invitrogen
Experimental: as §1, §2, §3, §4, §5, §6

[10] = target: T10, CTK (Homo sapiens, UniProt P42679); settings: 100 nM, read-out: Percent Control
T10 construct: purchased DiscoveRx KINOMEscan (TRKA and CSF1R IC50 enzymes from Invitrogen)
Experimental: as §1, §2, §3, §4, §5, §6

[11] = target: T11, EPHA1 (Homo sapiens, UniProt P21709); settings: EPHA1, 100 nM; read-out: Percent Control
T11 construct: purchased DiscoveRx KINOMEscan (TRKA and CSF1R IC50 enzymes from Invitrogen)
Experimental: as §1, §2, §3, §4, §5, §6

[12] = target: T12, ERK1 (Homo sapiens, UniProt P27361); settings: ERK1, 100 nM; read-out: Percent Control
T12 construct: purchased DiscoveRx KINOMEscan (TRKA and CSF1R IC50 enzymes from Invitrogen)
Experimental: as §1, §2, §3, §4, §5, §6

[13] = target: T13, FAK (Homo sapiens, UniProt Q05397); settings: 100 nM, read-out: Percent Control
T13 construct: purchased DiscoveRx KINOMEscan (TRKA and CSF1R IC50 enzymes from Invitrogen)
Experimental: as §1, §2, §3, §4, §5, §6

[14] = target: T14, FGFR3 (Homo sapiens, UniProt P22607); settings: FGFR3, 100 nM; read-out: Percent Control
T14 construct: purchased DiscoveRx KINOMEscan (TRKA and CSF1R IC50 enzymes from Invitrogen)
Experimental: as §1, §2, §3, §4, §5, §6

[15] = target: T15, HCK (Homo sapiens, UniProt P08631); settings: 100 nM
T15 construct: purchased DiscoveRx KINOMEscan (TRKA and CSF1R IC50 enzymes from Invitrogen)
Experimental: as §1, §2, §3, §4, §5, §6

[16] = target: T16, ITK (Homo sapiens, UniProt Q08881); settings: 100 nM, read-out: Percent Control
T16 construct: purchased DiscoveRx KINOMEscan (TRKA and CSF1R IC50 enzymes from Invitrogen)
Experimental: as §1, §2, §3, §4, §5, §6

[17] = target: T17, JAK2(JH1domain-catalytic) (Homo sapiens, UniProt O60674); settings: 100 nM, read-out: Percent Control
T17 construct: JAK2(JH1domain-catalytic); purchased DiscoveRx KINOMEscan (TRKA and CSF1R IC50 enzymes from Invitrogen)
Experimental: as §1, §2, §3, §4, §5, §6

[18] = target: T18, LTK (Homo sapiens, UniProt P29376); settings: 100 nM, read-out: Percent Control
T18 construct: purchased DiscoveRx KINOMEscan (TRKA and CSF1R IC50 enzymes from Invitrogen)
Experimental: as §1, §2, §3, §4, §5, §6

[19] = target: T19, LYN (Homo sapiens, UniProt P07948); settings: 100 nM
T19 construct: purchased DiscoveRx KINOMEscan (TRKA and CSF1R IC50 enzymes from Invitrogen)
Experimental: as §1, §2, §3, §4, §5, §6

[20] = target: T20, MET (Homo sapiens, UniProt P08581); settings: 100 nM, read-out: Percent Control
T20 construct: purchased DiscoveRx KINOMEscan (TRKA and CSF1R IC50 enzymes from Invitrogen)
Experimental: as §1, §2, §3, §4, §5, §6

[21] = target: T21, MKNK2 (Homo sapiens, UniProt Q9HBH9)
T21 construct: purchased DiscoveRx KINOMEscan (TRKA and CSF1R IC50 enzymes from Invitrogen)
Experimental: as §1, §2, §3, §4, §5, §6

[22] = target: T22, MLK2 (Homo sapiens, UniProt Q02779); settings: MLK2, 100 nM; read-out: Percent Control
T22 construct: purchased DiscoveRx KINOMEscan (TRKA and CSF1R IC50 enzymes from Invitrogen)
Experimental: as §1, §2, §3, §4, §5, §6

[23] = target: T23, MUSK (Homo sapiens, UniProt O15146); settings: 100 nM, read-out: Percent Control
T23 construct: purchased DiscoveRx KINOMEscan (TRKA and CSF1R IC50 enzymes from Invitrogen)
Experimental: as §1, §2, §3, §4, §5, §6

[24] = target: T24, NEK2 (Homo sapiens, UniProt P51955); settings: NEK2, 100 nM; read-out: Percent Control
T24 construct: purchased DiscoveRx KINOMEscan (TRKA and CSF1R IC50 enzymes from Invitrogen)
Experimental: as §1, §2, §3, §4, §5, §6

[25] = target: T25, PIM1 (Homo sapiens, UniProt P11309); settings: PIM1, 100 nM; read-out: Percent Control
T25 construct: purchased DiscoveRx KINOMEscan (TRKA and CSF1R IC50 enzymes from Invitrogen)
Experimental: as §1, §2, §3, §4, §5, §6

[26] = target: T26, PLK4 (Homo sapiens, UniProt O00444); settings: PLK4, 100 nM; read-out: Percent Control
T26 construct: purchased DiscoveRx KINOMEscan (TRKA and CSF1R IC50 enzymes from Invitrogen)
Experimental: as §1, §2, §3, §4, §5, §6

[27] = target: T27, SYK (Homo sapiens, UniProt P43405); settings: 100 nM, read-out: Percent Control
T27 construct: purchased DiscoveRx KINOMEscan (TRKA and CSF1R IC50 enzymes from Invitrogen)
Experimental: as §1, §2, §3, §4, §5, §6

[28] = target: T28, TIE2 (Homo sapiens, UniProt Q02763); settings: TIE2, 100 nM; read-out: Percent Control
T28 construct: purchased DiscoveRx KINOMEscan (TRKA and CSF1R IC50 enzymes from Invitrogen)
Experimental: as §1, §2, §3, §4, §5, §6

[29] = target: T29, TRKC (Homo sapiens, UniProt Q16288); settings: 100 nM
T29 construct: purchased DiscoveRx KINOMEscan (TRKA and CSF1R IC50 enzymes from Invitrogen)
Experimental: as §1, §2, §3, §4, §5, §6

[30] = target: T30, TSSK1B (Homo sapiens, UniProt Q9BXA7); settings: 100 nM, read-out: Percent Control
T30 construct: purchased DiscoverX (outsourced KINOMEscan)
Experimental: as §1, §2, §3, §4, §5, §6

[31] = target: T31, TXK (Homo sapiens, UniProt P42681); settings: 100 nM, read-out: Percent Control
T31 construct: purchased DiscoverX (outsourced KINOMEscan)
Experimental: as §1, §2, §3, §4, §5, §6

T9 sequence (P07333 20-972): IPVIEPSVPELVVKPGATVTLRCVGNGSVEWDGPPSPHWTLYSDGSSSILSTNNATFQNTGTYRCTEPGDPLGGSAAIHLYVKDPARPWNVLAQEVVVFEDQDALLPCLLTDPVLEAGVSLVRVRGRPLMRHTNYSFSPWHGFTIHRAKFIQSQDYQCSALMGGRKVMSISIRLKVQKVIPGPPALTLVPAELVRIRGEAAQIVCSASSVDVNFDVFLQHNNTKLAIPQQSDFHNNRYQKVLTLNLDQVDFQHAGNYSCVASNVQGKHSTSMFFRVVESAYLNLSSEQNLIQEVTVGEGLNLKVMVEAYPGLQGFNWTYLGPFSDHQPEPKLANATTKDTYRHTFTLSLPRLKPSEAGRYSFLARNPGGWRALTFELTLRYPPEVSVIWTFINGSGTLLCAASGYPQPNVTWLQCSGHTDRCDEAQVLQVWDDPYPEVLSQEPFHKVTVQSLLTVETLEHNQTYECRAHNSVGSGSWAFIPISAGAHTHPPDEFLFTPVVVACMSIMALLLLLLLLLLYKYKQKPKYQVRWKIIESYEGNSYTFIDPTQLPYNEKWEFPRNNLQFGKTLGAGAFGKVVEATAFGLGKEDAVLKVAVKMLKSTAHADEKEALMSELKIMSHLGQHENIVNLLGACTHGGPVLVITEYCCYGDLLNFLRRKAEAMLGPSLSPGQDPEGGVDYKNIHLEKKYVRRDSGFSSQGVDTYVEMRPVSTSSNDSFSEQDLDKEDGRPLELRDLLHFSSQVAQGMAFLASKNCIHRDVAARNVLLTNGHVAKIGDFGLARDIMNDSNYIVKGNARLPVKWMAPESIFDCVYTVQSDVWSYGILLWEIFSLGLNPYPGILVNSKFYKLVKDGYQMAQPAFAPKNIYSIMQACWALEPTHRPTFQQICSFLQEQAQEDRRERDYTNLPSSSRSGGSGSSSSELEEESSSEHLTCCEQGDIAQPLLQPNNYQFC
T15 sequence (P08631 whole entry): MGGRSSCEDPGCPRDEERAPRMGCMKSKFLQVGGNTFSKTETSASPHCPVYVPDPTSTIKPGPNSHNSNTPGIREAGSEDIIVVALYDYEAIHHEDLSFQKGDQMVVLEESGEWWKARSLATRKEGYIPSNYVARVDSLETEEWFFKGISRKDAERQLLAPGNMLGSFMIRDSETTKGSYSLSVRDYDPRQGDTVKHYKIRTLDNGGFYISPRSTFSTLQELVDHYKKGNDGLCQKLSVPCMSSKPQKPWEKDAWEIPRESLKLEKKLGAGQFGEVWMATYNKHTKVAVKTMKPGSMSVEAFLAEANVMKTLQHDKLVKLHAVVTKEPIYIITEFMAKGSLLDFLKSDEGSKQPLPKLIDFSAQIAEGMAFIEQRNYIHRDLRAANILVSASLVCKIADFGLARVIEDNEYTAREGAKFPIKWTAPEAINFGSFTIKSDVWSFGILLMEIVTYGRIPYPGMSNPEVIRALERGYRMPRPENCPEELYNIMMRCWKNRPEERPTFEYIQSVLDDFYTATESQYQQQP
T21 sequence (Q9HBH9 whole entry): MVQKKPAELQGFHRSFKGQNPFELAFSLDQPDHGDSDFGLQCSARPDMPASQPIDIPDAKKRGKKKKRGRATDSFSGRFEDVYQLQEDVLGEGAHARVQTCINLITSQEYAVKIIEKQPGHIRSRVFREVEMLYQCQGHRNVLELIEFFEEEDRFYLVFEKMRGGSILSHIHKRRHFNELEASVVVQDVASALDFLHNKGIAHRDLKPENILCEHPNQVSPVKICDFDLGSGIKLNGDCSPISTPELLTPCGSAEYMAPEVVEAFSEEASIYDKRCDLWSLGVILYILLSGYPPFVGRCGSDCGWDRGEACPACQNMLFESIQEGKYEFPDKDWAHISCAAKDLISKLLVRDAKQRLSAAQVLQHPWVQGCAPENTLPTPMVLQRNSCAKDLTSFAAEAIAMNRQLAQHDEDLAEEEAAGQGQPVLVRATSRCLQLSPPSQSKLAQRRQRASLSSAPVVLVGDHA
T19 sequence (P07948 whole entry): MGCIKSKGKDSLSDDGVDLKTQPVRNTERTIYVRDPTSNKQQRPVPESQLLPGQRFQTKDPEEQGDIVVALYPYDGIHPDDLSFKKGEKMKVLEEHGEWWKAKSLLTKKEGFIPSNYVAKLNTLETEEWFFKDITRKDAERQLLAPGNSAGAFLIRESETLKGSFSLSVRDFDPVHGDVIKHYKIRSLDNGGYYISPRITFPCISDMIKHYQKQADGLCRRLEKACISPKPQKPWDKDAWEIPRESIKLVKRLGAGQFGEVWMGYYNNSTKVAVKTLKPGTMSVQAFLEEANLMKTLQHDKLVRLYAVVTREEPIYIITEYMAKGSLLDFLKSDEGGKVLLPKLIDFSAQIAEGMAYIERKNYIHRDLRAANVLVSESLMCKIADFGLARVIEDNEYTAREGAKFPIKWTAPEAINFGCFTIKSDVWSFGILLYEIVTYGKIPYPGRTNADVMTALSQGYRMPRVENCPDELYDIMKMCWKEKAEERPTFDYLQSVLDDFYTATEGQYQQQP
T29 sequence (Q16288 32-839): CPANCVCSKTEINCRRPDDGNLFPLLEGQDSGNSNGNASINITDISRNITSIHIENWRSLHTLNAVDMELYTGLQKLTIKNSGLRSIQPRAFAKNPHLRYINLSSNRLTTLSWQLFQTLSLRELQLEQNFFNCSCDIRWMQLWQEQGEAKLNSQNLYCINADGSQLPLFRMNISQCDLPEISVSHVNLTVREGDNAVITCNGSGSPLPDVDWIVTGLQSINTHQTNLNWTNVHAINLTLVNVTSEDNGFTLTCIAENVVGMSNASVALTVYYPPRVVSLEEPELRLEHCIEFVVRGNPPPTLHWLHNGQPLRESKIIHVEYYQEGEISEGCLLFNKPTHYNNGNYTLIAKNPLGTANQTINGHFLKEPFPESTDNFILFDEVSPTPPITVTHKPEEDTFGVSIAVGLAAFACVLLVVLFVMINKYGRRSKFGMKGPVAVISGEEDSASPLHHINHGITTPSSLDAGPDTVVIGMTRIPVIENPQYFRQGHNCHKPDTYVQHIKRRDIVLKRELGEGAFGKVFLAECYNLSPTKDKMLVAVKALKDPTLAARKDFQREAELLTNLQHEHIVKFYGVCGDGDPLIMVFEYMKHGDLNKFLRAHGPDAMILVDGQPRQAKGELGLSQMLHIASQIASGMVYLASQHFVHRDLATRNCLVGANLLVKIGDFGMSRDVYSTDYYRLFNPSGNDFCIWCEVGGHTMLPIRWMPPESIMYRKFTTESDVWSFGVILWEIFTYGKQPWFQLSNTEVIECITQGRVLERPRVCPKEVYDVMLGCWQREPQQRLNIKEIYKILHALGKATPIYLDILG
T20 sequence (P08581 25-1390): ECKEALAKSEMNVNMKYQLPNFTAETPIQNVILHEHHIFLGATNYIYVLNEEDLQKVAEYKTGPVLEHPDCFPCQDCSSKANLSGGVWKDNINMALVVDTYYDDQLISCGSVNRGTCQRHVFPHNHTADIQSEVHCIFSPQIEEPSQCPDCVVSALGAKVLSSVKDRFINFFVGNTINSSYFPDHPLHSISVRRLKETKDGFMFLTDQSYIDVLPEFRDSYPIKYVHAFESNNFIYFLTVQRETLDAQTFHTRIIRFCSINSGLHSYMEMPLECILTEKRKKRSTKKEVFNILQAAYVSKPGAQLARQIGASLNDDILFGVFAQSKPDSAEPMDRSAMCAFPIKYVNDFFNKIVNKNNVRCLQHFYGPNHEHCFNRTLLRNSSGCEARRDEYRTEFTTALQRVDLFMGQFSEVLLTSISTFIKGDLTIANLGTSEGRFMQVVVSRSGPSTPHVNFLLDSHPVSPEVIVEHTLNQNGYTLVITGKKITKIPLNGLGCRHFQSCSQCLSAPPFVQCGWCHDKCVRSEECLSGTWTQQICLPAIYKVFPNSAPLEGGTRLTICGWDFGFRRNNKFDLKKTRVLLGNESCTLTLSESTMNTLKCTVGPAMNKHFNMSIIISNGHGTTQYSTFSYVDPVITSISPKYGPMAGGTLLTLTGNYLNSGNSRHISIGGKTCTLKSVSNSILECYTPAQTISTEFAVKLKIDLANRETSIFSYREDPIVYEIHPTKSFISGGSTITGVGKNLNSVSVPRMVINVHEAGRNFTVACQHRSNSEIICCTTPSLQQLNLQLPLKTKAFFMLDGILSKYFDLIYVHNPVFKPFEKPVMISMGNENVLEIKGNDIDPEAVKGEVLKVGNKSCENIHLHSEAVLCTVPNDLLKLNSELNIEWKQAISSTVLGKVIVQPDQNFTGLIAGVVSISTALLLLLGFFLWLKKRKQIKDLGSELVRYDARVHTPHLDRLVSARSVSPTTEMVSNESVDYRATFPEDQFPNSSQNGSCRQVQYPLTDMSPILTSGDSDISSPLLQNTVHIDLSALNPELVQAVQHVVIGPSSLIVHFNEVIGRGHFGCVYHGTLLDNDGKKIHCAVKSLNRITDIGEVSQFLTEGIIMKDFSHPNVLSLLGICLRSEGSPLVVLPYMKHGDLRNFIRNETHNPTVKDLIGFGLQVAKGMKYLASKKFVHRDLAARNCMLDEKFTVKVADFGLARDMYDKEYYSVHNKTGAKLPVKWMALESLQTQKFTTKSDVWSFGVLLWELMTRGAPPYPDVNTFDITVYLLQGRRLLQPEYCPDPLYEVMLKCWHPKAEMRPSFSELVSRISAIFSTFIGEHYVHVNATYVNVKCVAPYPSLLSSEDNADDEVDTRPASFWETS
T5 sequence (Q14012 whole entry): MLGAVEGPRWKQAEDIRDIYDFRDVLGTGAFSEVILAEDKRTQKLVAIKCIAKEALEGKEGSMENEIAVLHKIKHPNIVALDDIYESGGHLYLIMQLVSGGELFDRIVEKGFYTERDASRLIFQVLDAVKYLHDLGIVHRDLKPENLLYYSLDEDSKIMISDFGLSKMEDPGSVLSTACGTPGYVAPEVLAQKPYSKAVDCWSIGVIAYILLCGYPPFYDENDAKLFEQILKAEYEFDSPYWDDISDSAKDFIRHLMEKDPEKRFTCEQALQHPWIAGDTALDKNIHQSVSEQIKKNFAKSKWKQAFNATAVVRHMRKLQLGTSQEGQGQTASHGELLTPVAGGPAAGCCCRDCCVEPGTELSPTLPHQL

In the case of `CC(C)(C)c1cc(NC(=O)Cc2ccc(-n3cnc4cc(-c5ccc(S(C)(=O)=O)cc5)ccc43)cc2)no1` [NPA101.3], the remaining binding at 0.1 µM [1] is reported as 92%, the remaining binding at 0.1 µM [2] is reported as 95% and the remaining binding at 0.1 µM [3] is reported as 49%. For the same compound, the remaining binding at 0.1 µM [4] was 94%, the remaining binding at 0.1 µM [5] was 95% and the remaining binding at 0.1 µM [6] was 98%. The remaining binding at 0.1 µM [7] was 28%, the remaining binding at 0.1 µM [8] was 79% and the “binding (% bound)” value [9] was over 90 % bound. For the same compound, the remaining binding at 0.1 µM ([9]; CSF1R, read-out: Percent Control) was 0.05%, the remaining binding at 0.1 µM [10] was 56% and the remaining binding at 0.1 µM [11] was 39%. It also gave a remaining binding at 0.1 µM [12] of 100%, a remaining binding at 0.1 µM [13] of 86% and a remaining binding at 0.1 µM [14] of 100%. For the same compound, the “binding (% bound)” value [15] was over 90 % bound, the remaining binding at 0.1 µM ([15]; HCK, read-out: Percent Control) was 6.5% and the remaining binding at 0.1 µM [16] was 72%. The remaining binding at 0.1 µM [17] was 100%, the remaining binding at 0.1 µM [18] was 61% and the “binding (% bound)” value [19] was over 90 % bound. For the same compound, the remaining binding at 0.1 µM ([19]; LYN, read-out: Percent Control) was 2.8%, the remaining binding at 0.1 µM [20] was 79% and the “binding (% bound)” value ([21]; 100 nM) was over 90 % bound. For the same compound, the remaining binding at 0.1 µM ([21]; MKNK2, 100 nM, read-out: Percent Control) was 0.15%, the remaining binding at 0.1 µM [22] was 100% and the remaining binding at 0.1 µM [23] was 23%. The remaining binding at 0.1 µM [24] was 100%, the remaining binding at 0.1 µM [25] was 94% and the remaining binding at 0.1 µM [26] was 100%. For the same compound, the remaining binding at 0.1 µM [27] was 100%, the remaining binding at 0.1 µM [28] was 30% and the “binding (% bound)” value [29] was over 90 % bound. The remaining binding at 0.1 µM ([29]; TRKC, read-out: Percent Control) was 0.25%, the remaining binding at 0.1 µM [30] was 96% and the remaining binding at 0.1 µM [31] was 85%.
